pIC50: −log10 of the molar value. “Also recorded” adds a separate entry of the source. Where a name gives a salt, the structure may show the parent alone. Positions of bridges follow the written chain, without caps; N, C: chain ends. Non-standard residues stand in square brackets, D forms with d. Residues, ends and D or L forms follow the SMILES beside them. Dmt = Cc1cc(O)cc(C)c1C[C@H](N)C(=O)O; dPen = CC(C)(S)[C@@H](N)C(=O)O
Key:
δ opioid receptors = δ opioid receptors (Rattus norvegicus, UniProt P33533); assay: Opiate Binding Assay, displacement of 3[H]-DSLET
δ opioid receptors, sequence (P33533 whole entry): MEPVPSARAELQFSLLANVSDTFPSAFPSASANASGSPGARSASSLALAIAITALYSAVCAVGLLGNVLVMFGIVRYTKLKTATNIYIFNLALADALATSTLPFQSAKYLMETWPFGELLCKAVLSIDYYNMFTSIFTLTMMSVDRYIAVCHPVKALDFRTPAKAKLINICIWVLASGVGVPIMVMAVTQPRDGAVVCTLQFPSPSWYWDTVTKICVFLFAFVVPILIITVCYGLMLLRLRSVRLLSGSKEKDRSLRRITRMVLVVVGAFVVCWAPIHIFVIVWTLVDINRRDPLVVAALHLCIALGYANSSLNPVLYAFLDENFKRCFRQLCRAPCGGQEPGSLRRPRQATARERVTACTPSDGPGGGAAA

[1] = system: Charles River albino mice; assay: Tail Flick Assay; format: in vivo, mouse; settings: listed as Test Tetrapeptide No. 1, monohydrochloride
Description: (§1) The "Tail Flick Assay" and the "Hot Plate Assay" (also known as the "Hind Paw Lick Assay") use thermal pain of transient duration, and are tests in which the pain threshold of the mice or rats being analyzed has not been altered. They are useful for evaluating the ability of a compound or drug to increase the animal's pain threshold (i.e. prolong response latencies), rather than to restore normal thresholds.
(§2) The heat-induced response to the Tail Flick Assay is a reflex reaction mediated at the level of the spinal cord. The heat-induced response to the Hot Plate Assay, however, is a more complex behavior requiring integration at higher centers in the brain. […]
(§3) Tail flick response latencies (defined as the time that elapsed between the onset of a high intensity beam of light and the reflex removal of the mouse or rat's tail) and hot plate response latencies (defined as the time that elapsed between the placement of a mouse or rat on a 55 degrees Celsius surface and a lick of the hind paw) were separately, but consecutively, measured before (baseline) and again at fixed intervals after subcutaneous or intracerebroventricular administration of one of the tetrapeptide compounds of the invention, the Methyl Ester Tetrapeptide, the Mosberg Tetrapeptide, or after the administration of saline (controls). […]

CD Charles River mice = assay: Writhing Assay (PBQ-induced writhing); format: in vivo, mouse; settings: for number of mice out of ten in which peptide was active, Intragastric: 10 mg/kg i.g., PBQ i.p. 15 min after dosing; for ED50 value, subcutaneous: s.c.
Description: The "Writhing Assay" is one of the most widely-used experimental procedures for measuring the analgesic activity of different narcotic and nonnarcotic analgesic agents, and involves the continuous, chemically-induced pain of visceral origin to an animal, such as a mouse or rat. [Gyires et al., Arch. int. Pharmacodyn, 267, 131-140 (1984); C. Vander Wende et al., Fed. Proc., 15, 494 (1956); Koster et al., Fed. Proc., 18, 412 (1959); and Witken et al., J. Pharmacol. Exp. Ther., 133, 400-408 (1961). ] Chemicals which may be used to induce this pain include phenylbenzoquinone (PBQ) and acetic acid. As a result of the chemical irritation to the animal, a characteristic stretching and writhing of the animal (dorsiflexion of the animal's back, extension of its hindlimbs an the strong contraction of its abdominal musculature) will generally occur. […] Drugs which reduce the number of writhes of the animal appear to restore the normal nociceptive threshold of the animal.
This assay was conducted generally in the manner described by R. I. Taber, "Predictive Value of Analgesic Assays in Mice and Rats,"Advances in Biochemical Psychopharmacology, 8, 191 (1974). The Methyl Ester Tetrapeptide and Test Tetrapeptides Nos. 1, 3, 4, 5, 6, 7, 8 and 9 were tested in this assay.
Two hundred CD Charles River mice, weighing 20 to 30 grams were used in this assay.
Twenty-five minutes after subcutaneous administration, and fifteen minutes after intragastric administration, to the mice of 10 mg per kilogram of body weight of either a Test Tetrapeptide or the Methyl Ester Tetrapeptide, […] of body weight of a 0.025% w/v solution of PBQ was injected intraperitoneally into each mouse. Some mice were given saline in place of a Test Tetrapeptide or the Methyl Ester Tetrapeptide, and were used as a control group.
Five minutes later, each mouse was individually placed into a glass beaker for observation, and the number of writhes occurring during the following ten-minute period was counted.
A tetrapeptide compound was considered to be "active" (to have produced analgesia in a mouse) if, in accordance with the conditions set forth above, and under the test criteria employed for this assay, after the administration of 10 mg per kilogram of body weight of the tetrapeptide to the mouse, the number of writhes elicited by a mouse injected with PBQ was equal to, or less than, one-half the median number of writhes recorded for the saline-treated control group of mice that day, as described by R. I. Taber, supra.
The standard initial screening dose of a compound employed in this assay was 10 mg per kilogram (mpk) of body weight for both routes of administration. If this initial screening dose of the tetrapeptide produced analgesia in seven of ten mice, then the effect of additional doses of the tetrapeptide on the writhing response was evaluated, and then the ED50 value (that dose of a Test Tetrapeptide or the Methyl Ester Tetrapeptide which produced analgesia in 50% of the mice to which the tetrapeptide was administered) was generally calculated. A maximum likelihood function was used to determine the ED50 value. (The slopes of the dose-response curves for all tetrapeptides analyzed were compared as described by Tallarida and Murray, Manual of Pharmacologic Calculations, Page 11 (Springer Verlag, N.Y., 1981)).

[2] = system: Charles River albino mice; assay: Hot Plate Assay (Hind Paw Lick Assay); format: in vivo, mouse
Description: as §1, §2, §3

μ opioid receptors = μ opioid receptors (Rattus norvegicus, UniProt P33535); assay: Opiate Binding Assay, displacement of 3[H]-DAMPGO
μ opioid receptors, sequence (P33535 whole entry): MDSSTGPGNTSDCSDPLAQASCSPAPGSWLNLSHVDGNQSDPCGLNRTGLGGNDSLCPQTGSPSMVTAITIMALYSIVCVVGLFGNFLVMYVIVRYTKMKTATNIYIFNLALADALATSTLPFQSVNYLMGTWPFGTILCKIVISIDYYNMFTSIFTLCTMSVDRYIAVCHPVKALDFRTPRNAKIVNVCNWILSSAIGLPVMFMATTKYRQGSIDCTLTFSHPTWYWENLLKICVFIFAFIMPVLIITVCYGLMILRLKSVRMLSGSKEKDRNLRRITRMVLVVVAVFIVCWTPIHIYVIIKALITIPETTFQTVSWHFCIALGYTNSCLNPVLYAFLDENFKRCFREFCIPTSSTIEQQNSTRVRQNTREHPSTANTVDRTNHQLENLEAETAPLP

Molecule | Mean IC50 Value μ/δ Ratio (δ opioid receptors; ratio of mean IC50 μ to δ, above 1.0 = more specific for δ) | activity (increase in tail flick latency), Intracerebroventricular ([1]; i.c.v., at 1 μg/kg) | activity (increase in tail flick latency), Subcutaneous ([1]; s.c., at 100 mpk, 100 mg/kg) | number of mice out of ten in which peptide was active, Intragastric (CD Charles River mice) | ED50 value, subcutaneous (CD Charles River mice) | ED50 value, subcutaneous (CD Charles River mice; PBQ i.p. 25 min after dosing) | activity (increase in hot plate latency), Intracerebroventricular ([2]; i.c.v., at 1.0 μg/kg) | activity (increase in hot plate latency), Subcutaneous ([2]; s.c., at 100 mpk, listed as Test Tetrapeptide No. 1, monohydrochloride, 100 mg/kg) | Percent Displacement (δ) (δ opioid receptors; at 100 nM, 3[H]-DSLET) | Percent Displacement (μ) (μ opioid receptors; at 100 nM, 3[H]-DAMPGO) | number of mice out of ten in which peptide was active, Subcutaneous (CD Charles River mice; 10 mg/kg s.c., PBQ i.p. 25 min after dosing) | pIC50 (δ opioid receptors) | pIC50 (μ opioid receptors)
COC(=O)[C@@H]1NC(=O)[C@H](Cc2ccccc2)NC(=O)[C@H](NC(=O)[C@@H](N)Cc2c(C)cc(O)cc2C)CSSC1(C)C [Example 25, 2,6-dimethyl-L-tyrosyl-D-cysteinyl-L-phenylalanyl-3-mercapto-D-valine, cyclic (2→4)-disulfide. methyl ester, monohydrochloride] (H-[Dmt][dC]F[dPen]-OMe; disulfide 2-4) | 1.2 | active | Active; also recorded: showed activity | 3/10 | 4.1 mg per kg of body weight | 4.1 mpk | Active | Active; also recorded: showed activity | – | – | – | – | –
2,6-dimethyl-L-tyrosyl-D-cysteinyl-4-chloro-L-phenylalanyl-3-mercapto-D-valine, cyclic (2→4)-disulfide, methyl ester, monohydrochloride [Example 32] | – | – | – | 4/10 | – | – | – | – | 44% | 18% | 4/10 | – | –
Cc1cc(O)cc(C)c1C[C@H](N)C(=O)N[C@@H]1CSSC(C)(C)[C@H](C(=O)O)NC(=O)[C@H](Cc2ccccc2)NC1=O [Example 4, 2,6-dimethyl-L-tyrosyl-D-cysteinyl-L-phenylalanyl-3-mercapto-D-valine, cyclic (2→4)-disulfide] (H-[Dmt][dC]F[dPen]-OH; disulfide 2-4) | – | – | – | – | – | – | – | – | – | – | – | 9.40 | 8.27

Source: patent US5216124A, “Substituted cyclic tetrapeptides” (G. D. Searle & Co., priority 1991, dated 1993)
